Assay results as given in ChEMBL document CHEMBL1146945, “Quaternary salts of 4,3' and 4,4' bis-pyridinium monooximes. Part 2: synthesis and biological activity” (Bioorg Med Chem Lett, 2006).
Calls of active or inactive are those of the source.

Assays:
[1] = target: T1, Acetylcholinesterase (Mus musculus) (UniProt P21836); test: Reactivation of TEPP inhibited AChE in mouse brain at 100 uM; format: functional, tissue-based; set-up: scale not given: the % may be the effect or the level left
T1 sequence (whole entry): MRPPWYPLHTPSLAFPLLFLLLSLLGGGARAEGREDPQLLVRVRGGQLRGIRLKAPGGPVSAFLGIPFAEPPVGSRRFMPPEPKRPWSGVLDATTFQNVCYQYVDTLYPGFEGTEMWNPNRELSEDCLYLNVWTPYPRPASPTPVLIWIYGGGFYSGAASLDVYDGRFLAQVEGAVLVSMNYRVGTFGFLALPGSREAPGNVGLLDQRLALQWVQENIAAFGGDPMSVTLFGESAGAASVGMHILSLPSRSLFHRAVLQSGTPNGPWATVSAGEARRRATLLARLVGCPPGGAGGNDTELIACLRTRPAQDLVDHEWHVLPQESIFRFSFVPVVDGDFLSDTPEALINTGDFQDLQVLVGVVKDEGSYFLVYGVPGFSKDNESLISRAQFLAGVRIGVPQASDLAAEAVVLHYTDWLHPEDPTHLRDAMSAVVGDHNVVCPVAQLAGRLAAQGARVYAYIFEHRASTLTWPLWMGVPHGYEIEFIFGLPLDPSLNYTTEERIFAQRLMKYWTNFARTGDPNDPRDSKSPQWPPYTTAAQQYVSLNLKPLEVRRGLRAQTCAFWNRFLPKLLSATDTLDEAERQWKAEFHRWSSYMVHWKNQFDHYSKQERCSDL

[2] = target: T1, Acetylcholinesterase (Mus musculus); test: Reactivation of TEPP inhibited AChE in mouse brain at 50 uM; format: functional, tissue-based
[3] = target: T1, Acetylcholinesterase (Mus musculus); test: Reactivation of TEPP inhibited AChE in mouse brain at 250 uM; format: functional, tissue-based
[4] = target: T1, Acetylcholinesterase (Mus musculus); test: Reactivation of TEPP inhibited AChE in mouse brain at 300 uM; format: functional, tissue-based
[5] = target: T1, Acetylcholinesterase (Mus musculus); test: Reactivation of TEPP inhibited AChE in mouse brain at 150 uM; format: functional, tissue-based
[6] = target: T1, Acetylcholinesterase (Mus musculus); test: Reactivation of TEPP inhibited AChE in mouse brain at 200 uM; format: functional, tissue-based
[7] = target: T1, Acetylcholinesterase (Mus musculus); test: Reactivation of TEPP inhibited mouse brain AChE at 30 uM; format: functional; set-up: scale not given: the % may be the effect or the level left
[8] = target: T1, Acetylcholinesterase (Mus musculus); test: Potentiation of inhibition of AChE by TEPP in mouse brain at 100 uM; format: functional, tissue-based
[9] = target: T1, Acetylcholinesterase (Mus musculus); test: Potentiation of inhibition of AChE by TEPP in mouse brain at 300 uM; format: functional, tissue-based

Measured: Activity

NC(=O)c1ccc[n+](CCCCCCCCC[n+]2ccc(/C=N/O)cc2)c1
not listed: [7] | [8] | [9]
inactive: all other assays above

NC(=O)c1cc[n+](CCCCCCC[n+]2ccc(/C=N/O)cc2)cc1
15%: [7]
active: [8] | [9]

NC(=O)c1ccc[n+](CCCCCCCC[n+]2ccc(/C=N/O)cc2)c1
not listed: [7] | [8] | [9]
inactive: all other assays above

O/N=C/c1cc[n+](CCCCCCCC[n+]2ccc(/C=N/O)cc2)cc1
not listed: [7] | [8] | [9]
inactive: all other assays above

O/N=C/c1cc[n+](CCCCCCC[n+]2ccc(/C=N/O)cc2)cc1
39%: [7]
14%: [1]
active: [9]

NC(=O)c1cc[n+](CCCCCCCCC[n+]2ccc(/C=N/O)cc2)cc1
not listed: [7] | [8] | [9]
inactive: all other assays above

NC(=O)c1ccc[n+](CCCCCCC[n+]2ccc(/C=N/O)cc2)c1
23%: [7]
active: [8] | [9]

O/N=C/c1cc[n+](CCCCCCCCC[n+]2ccc(/C=N/O)cc2)cc1
not listed: [7] | [8] | [9]
inactive: all other assays above

NC(=O)c1cc[n+](CCCCCCCC[n+]2ccc(/C=N/O)cc2)cc1
not listed: [7] | [8] | [9]
inactive: all other assays above
